The values below come from patent US12139481B2, “Compositions comprising macrocycle derivatives incorporating bridged macrocycles and methods of producing and using same” (Southwestern Oklahoma State University, priority 2015, dated 2024).

The test system of the assay is Cryptococcus neoformans ATCC 90113. Description: Antimicrobial microdilution assay against Cryptococcus neoformans (modified CLSI/NCCLS, optical density). The assay is classed as cell-based. The following applies: for X more potent than Amphotericin B: C. neoformans, ratio of molar IC50 to Amphotericin B; for C. neoformans IC50 / IC50: in vitro, C. neoformans ATCC 90113; for IC50: read-out: C. neoformans IC50 (mol/L). As to the method:
Summary: Various macrocyclic derivatives constructed in accordance with the presently disclosed and/or claimed inventive concept(s) were screened in vitro against Cryptococcus neoformans ATCC 90113 using a microdilution assay. The minimum fungicidal concentration (MFC), the lowest test concentration that kills the organism, was determined in broth media.
Antimicrobial assay: Cryptococcus neoformans ATCC 90113 were obtained from the American Type Culture Collection (Manassas, VA.). The susceptibility testing was performed using a modified version of the CLSI (formerly NCCLS) methods (see below), and optical density was used to monitor growth. Samples were serially diluted in 20% DMSO/saline and transferred in duplicate to 96-well flat bottom microplates. Microbial inocula were prepared by correcting the OD630 of cell/spore suspensions in incubation broth RPMI at pH 6.0 to afford final desired target inocula. Amphotericin B (“AMB;” ICN Biomedicals, OH) was used as drug control. The organism concentration was read at 630 nm using the Biotek Powerwave XS plate reader (Bio-Tek instruments, VT) prior to and after incubation. Minimum fungicidal concentrations were determined by removing 5 μL from each clear well, transferring to agar, and incubating until growth was seen. The MFC/MBC is defined as the lowest test concentration that kids the organism (allows no growth on agar).
References for NCCLS methods referenced above: 1 NCCLS. Reference method for broth dilution antifungal susceptibility testing of yeasts, Vol. 22. Approved standard, 2nd ed. Wayne: National Committee for Clinical Laboratory Standards; 2002: 1-51. 2 NCCLS. Reference method for broth dilution antifungal susceptibility testing of conidium forming filamentous fungi, Vol. 18. Proposed standard M38-P. Wayne: National Committee for Clinical Laboratory Standards; 1998: 1-39. 3 NCCLS. Methods for dilution antimicrobial susceptibility tests for bacteria that grow aerobically, Vol. 20. NCCLS Document M7-A5. Wayne: National Committee for Clinical Laboratory Standards; 2000: 1-58.
The term “IC50” as used herein will be understood to refer to a test concentration in mol/L that affords 50% inhibition of the microbe relative to negative and positive controls. […] The abbreviation “MFC” as used herein will be understood to refer to a minimum fungicidal concentration, or the lowest test concentration in mol/L that kills the organism. All IC50s are calculated using the XLfit® fit curve fitting software (ID Business Solutions Ltd, Guildford, Surrey, UK).
General Experimental Procedures. All organisms were obtained from the American Type Culture Collection (Manassas, VA) and include the fungi Candida albicans ATCC 90028, C. glabrata ATCC 90030, C. krusei ATCC 6258, and Cryptococcus neoformans ATCC 90113, and the bacteria Staphylococcus aureus ATCC 29213 and methicillin-resistant S. aureus ATCC 33591 (MRS). All organisms were tested using modified versions of the CLSI (formerly NCCLS) methods. For all organisms, optical density was used to monitor growth (NCCLS, Reference Method for Broth Dilution Antifungal Susceptibility Testing of Yeasts; Approved Standard M27-A2. National Committee on Clinical Laboratory Standards, 2002 22 (15); and NCCLS, Methods for Dilution Antimicrobial Susceptibility Tests for Bacteria that Grow Aerobically; Approved Standard, Seventh Edition M7-A7. National Committee on Clinical Laboratory Standards, 2006. 26(2)).
Samples (dissolved in DMSO) were serially-diluted in 20% DMSO/saline and transferred (10 μL) in duplicate to 96 well flat bottom microplates.

Consider `CC(=O)[O-].CC(=O)[O-].F[P-](F)(F)(F)(F)F.F[P-](F)(F)(F)(F)F.O.[Co+2].[Co+2].c1cc(CN2CCNCCCN3CCN(CC3)CC2)cc(CN2CCNCCCN3CCN(CC3)CC2)c1` [OB55, [Co2(m-SB-Homocyclens)(OAc)2][PF6]2•H2O], for which the “X more potent than Amphotericin B” value worked out at 0.05, the “C. neoformans IC50” value was found to be 5.120 µg/mL and the IC50 is 4.78 µM.
On to [Fe(Py-SB-Cyclam)Cl]PF6 [ADS18C], for which the “X more potent than Amphotericin B” value is 0.01, the “C. neoformans IC50” value worked out at 18.540 µg/mL and the IC50 was determined as 33.5 µM.
Consider [Co(Me1Pic1-CB-cyclen)](PF6)3 [KRW48], for which the “X more potent than Amphotericin B” value is 0.18, the “C. neoformans IC50” value turned out to be 1.090 µg/mL and the IC50 was 1.3 µM.
Regarding “[Zn(H2PBCyclam)(OAc)]PF6•2.5NH4PF6 [SLK41]”, the “X more potent than Amphotericin B” value worked out at 0.04, the “C. neoformans IC50” value came to 5.190 µg/mL and the IC50 worked out at 5.66 µM.
Regarding `C1CNCCN2CCCNCCN(C1)CC2.CC(=O)[O-].F[P-](F)(F)(F)(F)F.[Co+2]` [ANC25, [Co(H2Bcyclam)(OAc)]PF6], the “X more potent than Amphotericin B” value is on record as 0.03, the “C. neoformans IC50” value amounted to 4.360 µg/mL and the IC50 stood at 8.91 µM.
The corresponding values for `CN1CCCN2CCN(C)CCCN(CC1)CC2.F[P-](F)(F)(F)(F)F.[Cl-].[Cl-].[Co+3]` [SAH06#2, [Co(Bcyclam)Cl2]PF6] are 0.01, 19.220 µg/mL and 36.3 µM.
The corresponding values for “[Co2(p-CB-Homocyclens)(OAc)2][PF6]2 [TJH379A]” are 0.32, no more than 0.800 µg/mL and 0.74 µM.
For the compound `F[P-](F)(F)(F)(F)F.F[P-](F)(F)(F)(F)F.F[P-](F)(F)(F)(F)F.F[P-](F)(F)(F)(F)F.O.O.[Cu+2].[Cu+2].c1cc(CN2CCNCCCN3CCN(CC3)CC2)ccc1CN1CCNCCCN2CCN(CC2)CC1` [OB49, [Cu2(p-SB-Homocyclens)][PF6]4•2H2O], the “X more potent than Amphotericin B” value worked out at 0.38, the “C. neoformans IC50” value is no more than 0.800 µg/mL and the IC50 amounted to 0.63 µM.
Consider “[Fe2(m-cyclam-homocyclen)][FeCl4]2•7H2O [AW048]”, for which the “X more potent than Amphotericin B” value was found to be 0.17, the “C. neoformans IC50” value came to 1.660 µg/mL and the IC50 was 1.38 µM.
Regarding `CC(=O)[O-].CN1CCCN2CCN(CCCN(Cc3ccccc3)CC2)CC1.F[P-](F)(F)(F)(F)F.[Co+2]` [TRH16, [Co(Bn1Me1Bcyclam)(OAc)]PF6], the “X more potent than Amphotericin B” value is 0.02, the “C. neoformans IC50” value is 9.190 µg/mL and the IC50 is 15.5 µM.
In the case of `CC(=O)[O-].CN1CCN2CCN(CC1)CCN(Cc1cc(Cl)nc(Cl)c1)CC2.F[P-](F)(F)(F)(F)F.[Co+2]` [OB118, [Co(Me1dcp1-CB-cyclen)(OAc)]PF6], the “X more potent than Amphotericin B” value is given as 0.03, the “C. neoformans IC50” value was 6.050 µg/mL and the IC50 was 9.52 µM.
Regarding “[Cu(Bn2PBCyclen)(C2H3O2)0.4][PF6]1.6 [AW040]”, the “X more potent than Amphotericin B” value amounted to 0.02, the “C. neoformans IC50” value came to 7.050 µg/mL and the IC50 came out at 9.91 µM.
Consider `CC(=O)[O-].CN1CCN2CCN(CC1)CCN(Cc1ccccc1)CC2.F[P-](F)(F)(F)(F)F.F[P-](F)(F)(F)(F)F.[Co+3]` [TRH15, [Co(Bn1Me1Bcyclen)(OAc)][PF6]2], for which the “X more potent than Amphotericin B” value was found to be 0.21, the “C. neoformans IC50” value is no more than 0.800 µg/mL and the IC50 stood at 1.13 µM.
With [Mn(Py-SB-Cyclam)Cl]PF6•3H2O [ADS17], the “X more potent than Amphotericin B” value is recorded as 0.03, the “C. neoformans IC50” value was found to be 5.220 µg/mL and the IC50 stood at 8.6 µM.
The corresponding values for `CN1CCN2CCN(C)CCN(CC1)CC2.F[P-](F)(F)(F)(F)F.[Cl-].[Cl-].[Co+3]` [DT06#2, [Co(Bcyclen)Cl2]PF6] are 0.04, 3.390 µg/mL and 6.78 µM.
On to `C1CN2CCNCCN(CCN1)CC2.CC(=O)[O-].F[P-](F)(F)(F)(F)F.[Co+2]` [ANC27A, [Co(H2Bcyclen)(OAc)]PF6], for which the “X more potent than Amphotericin B” value is reported as 0.02, the “C. neoformans IC50” value turned out to be 5.030 µg/mL and the IC50 is 10.9 µM.
Taken in the same sequence, the figures for Ni(Py-SB-Cyclam)Cl2•3H2O [ADS20] were 0.01, 18.590 µg/mL and 37.1 µM.
For [Zn(Me1Pic1-CB-cyclen)](PF6)2 [KRW49], the “X more potent than Amphotericin B” value is on record as 0.03, the “C. neoformans IC50” value was determined as 5.230 µg/mL and the IC50 is 7.53 µM.
`[Cl-].[Cl-].[Zn+2].c1ccc2[nH]c(CN3CCNCCN4CCN(CC4)CC3)nc2c1` [SJA222, [Zn(SB-BI-cyclen)(Cl)2]]: the “X more potent than Amphotericin B” value came out at 0.03 and the “C. neoformans IC50” value was found to be 2.610 µg/mL.
For `CC(=O)[O-].CC(=O)[O-].CC(=O)[O-].F[P-](F)(F)(F)(F)F.F[P-](F)(F)(F)(F)F.F[P-](F)(F)(F)(F)F.[Co+3].[Co+3].c1cc(CN2CCCN3CCNCCCN(CC3)CC2)ccc1CN1CCCN2CCNCCCN(CC2)CC1` [TJH414B, [Co2(H2-p-CB-cyclams)(OAc)3][PF6]3], the “X more potent than Amphotericin B” value came to 1.31, the “C. neoformans IC50” value was found to be 0.234 µg/mL and the IC50 is 0.182 µM.
Take `c1ccc2[nH]c(CN3CCNCCN4CCN(CC4)CC3)nc2c1` [SJA219, SB-BI-cyclen]: the “X more potent than Amphotericin B” value is listed as 0.01, the “C. neoformans IC50” value turned out to be 5.780 µg/mL and the IC50 came to 17.6 µM.
On to `CN1CCCN2CCN(C)CCN(CC1)CC2.F[P-](F)(F)(F)(F)F.[Cl-].[Cl-].[Mn+3]` [DLM10, [Mn(B13N4)Cl2]PF6], for which the “X more potent than Amphotericin B” value was found to be 0.01, the “C. neoformans IC50” value was found to be 9.522 µg/mL and the IC50 was 18.6 µM.
As to “[Ni2(m-SB-cyclam-cyclen)(OAc)][PF6]3 [CMB033]”, the “X more potent than Amphotericin B” value is on record as 0.16, the “C. neoformans IC50” value is 1.710 µg/mL and the IC50 is 1.5 µM.
The corresponding values for [Cu(dcp1-SB-cyclen)(OAc)]PF6 [OB105] are 0.08, 2.190 µg/mL and 3.1 µM.
The corresponding values for “[Cu2(p-CB-Homocyclens)(OAc)2][PF6]2 [ANC011]” are 0.06, 4.190 µg/mL and 3.85 µM.
Consider `CC(=O)[O-].CC(=O)[O-].F[P-](F)(F)(F)(F)F.F[P-](F)(F)(F)(F)F.O.O.O.O.O.[Cu+2].[Cu+2].c1cc(CN2CCCN3CCNCCCN(CC3)CC2)ccc1CN1CCCN2CCNCCCN(CC2)CC1` [TJH416B, [Cu2(H2-p-CB-cyclams)(OAc)2][PF6]2•5H2O], for which the “X more potent than Amphotericin B” value came out at 0.09, the “C. neoformans IC50” value was 3.030 µg/mL and the IC50 turned out to be 2.57 µM.
Take `CN1CCN2CCN(CC1)CCN(Cc1nc3ccccc3[nH]1)CC2.[Cl-].[Cl-].[Mn+2]` [SJA227, [Mn(CB-BI-cyclen)(Cl)2]]: the “X more potent than Amphotericin B” value is 0.04, the “C. neoformans IC50” value was found to be 1.930 µg/mL and the IC50 was found to be 5.63 µM.
The corresponding values for `CN1CCN2CCN(CC1)CCN(Cc1ccccn1)CC2.[Cl-].[Cl-].[Mn+2]` [KRW37, [Mn(pic1Me1-CB-Cyclen)Cl]Cl] are 0.03, 3.076 µg/mL and 7.17 µM.
